One molecule from PMC11769294, “(E)-1-(3-(3-Hydroxy-4-Methoxyphenyl)-1-(3,4,5-Trimethoxyphenyl)allyl)-1H-1,2,4-Triazole and Related Compounds: Their Synthesis and Biological Evaluation as Novel Antimitotic Agents Targeting Breast Cancer” (Pharmaceuticals, 2025) can be followed below.

For experiment [1], the system named is MDA-MB-231 breast cancer cells. The experiment in a line: Annexin V/PI apoptotic assay. The class given is cell-based, human. The method, then:
(§1) Apoptotic cell death was monitored by flow cytometry using Annexin V and propidium iodide (PI) to determine the Annexin V and PI negative cells (Q4, healthy cells), Annexin V positive and PI negative cells (Q3, early apoptosis), Annexin V and PI positive cells (Q2, late apoptosis), and Annexin V negative and PI-positive cells (Q1, necrosis) cells. MCF-7 and MDA-MB-231 cells for this experiment were seeded in 6-well plates at a density of 1 × 10^5 cells/mL (3 mL). Following the protocol previously described, the cells were treated at 37 °C with either vehicle (0.1% (v/v) EtOH), phenstatin 19c, (0.1 μM and 0.5 μM), or 22b (0.1 μM, 0.5 μM and 1 μM) at the 48 h time point. Cells were harvested by centrifugation at 400× g using a temperature-controlled Sorvall centrifuge and then prepared for flow cytometric analysis. Cells were washed in Annexin V Binding Buffer 1X (binding buffer: 0.1 M 4-(2-hydroxyethyl)-1-piperazineethanesulfonic acid (HEPES), pH 7.4; 1.4 M NaCl; 25 mM CaCl2 diluted in dH2O, 0.5 mL), and incubated in the dark for 30 min on ice in Annexin V-containing binding buffer (1:100), 50 μL protected from light. Cells were then washed once in binding buffer and then re-suspended in a PI-containing binding buffer (1:1,000) (0.5 μg/mL, 500 μL) and immediately analyzed within 1 h to determine the populations produced. BD Accuri flow cytometer (BD Biosciences, 2350 Qume Dr, San Jose, CA, USA) and GraphPad Prism software were used for the analysis of the data (GraphPad Software, Inc., 2365 Northside Dr., Suite 560, San Diego, CA, USA).
(§2) Figure 11 Compound 22b induced apoptosis in (A) MCF-7 breast cancer cells and (B) MDA-MB-231 breast cancer cells. MCF-7 breast cancer cells (A) and MDA-MB-23 breast cancer cells (B) were treated with 22b (0.1, 0.5, and 1.0 μM) or phenstatin (19c) (0.1 μM and 0.5 μM) or control vehicle (0.1% ethanol (v/v)). The data shown for the control vehicle and phenstatin are as we previously reported. The apoptotic cell content was determined by staining with Annexin V-FITC and PI. […]

Experiment [2] concerns MCF-7 breast cancer cells. The experiment in a line: Annexin V/PI apoptotic assay. The class given is cell-based, human. The method, then: as §1, §2
The subject of experiment [3] is tubulin in MCF-7 breast cancer cells. The experiment in a line: Immunofluorescence confocal microscopy of microtubules. The class given is cell-based, human. The conditions noted are these: 16 h, 22b 10 μM, paclitaxel and phenstatin 1 μM. The method, then: Briefly, the MCF-7 cells were seeded at a density of 1 × 10^5 cells/mL on eight chamber glass slides (BD Biosciences). […] The cells were then washed in PBS, fixed for 20 min with 4% paraformaldehyde in PBS, and permeabilized in 0.5% Triton X-100. […] Images of the cells were obtained using Leica SP8 confocal microscopy (Wetzlar, Germany) with Leica application suite X software (Wetzlar, Germany). Experiments were performed on three independent occasions.
The micrograph images were obtained with Leica SP8 confocal microscopy utilizing Leica application suite X software. Representative confocal images of three separate experiments are shown. The scale bar indicates 25 μm.

For experiment [4], the target named is CYP19 (aromatase) (Homo sapiens, UniProt P11511). The experiment in a line: Cytochrome P450 assay (DBF fluorescence). The conditions noted are these: read-out: inhibition of CYP19.
CYP19 (aromatase), sequence (P11511 whole entry): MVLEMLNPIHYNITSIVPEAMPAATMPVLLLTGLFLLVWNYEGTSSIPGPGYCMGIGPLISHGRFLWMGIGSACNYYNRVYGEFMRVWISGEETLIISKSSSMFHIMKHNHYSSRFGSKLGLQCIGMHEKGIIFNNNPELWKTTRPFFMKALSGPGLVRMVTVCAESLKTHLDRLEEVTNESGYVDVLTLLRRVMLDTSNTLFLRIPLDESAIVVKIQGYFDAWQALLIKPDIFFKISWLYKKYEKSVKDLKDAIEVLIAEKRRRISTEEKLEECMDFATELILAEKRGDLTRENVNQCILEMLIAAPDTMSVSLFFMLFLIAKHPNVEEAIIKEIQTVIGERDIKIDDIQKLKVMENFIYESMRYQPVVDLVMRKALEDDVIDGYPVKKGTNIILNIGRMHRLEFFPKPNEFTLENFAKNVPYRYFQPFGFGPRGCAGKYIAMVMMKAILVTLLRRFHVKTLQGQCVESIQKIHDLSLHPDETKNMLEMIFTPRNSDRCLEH
For experiment [5], the system named is MDA-MB-231 breast cancer cells. The experiment in a line: alamarBlue cell viability assay. The class given is cell-based. The conditions noted are these: Homo sapiens. The method, then: HL-60 cells were suspension cells and the seeding density for the viability assay was 25,000 cells/mL. MCF-7 cells (adherent) were cultured in Minimum Essential Media (MEM) with GlutaMAX™-I, supplemented with 1% (v/v) non-essential amino acids, 10% (v/v) fetal bovine serum (FBS), purchased from BD Biosciences (Edmund Halley Road, Oxford, UK), and 1% (v/v) penicillin/streptomycin 5000 U/mL. The MCF-7 cells used in the screening of the compounds during these experiments were mycoplasma-free. The seeding density of MCF-7 in the viability assay was 25,000 cells/mL and 50,000 cells/mL in the FACS assay. […]
The biochemical assays were performed in triplicate and on at least three independent occasions to facilitate the determination of mean values. […] Adherent cells such as MCF-7, MDA-MB-231, and MCF-10A were trypsinized to detach them from the flask, counted as previously described, and seeded in 96 well plates with a seeding density of 25,000 cells /mL (200 µL of suspension in each well so that the final number of cells per well was 5000) and 1 × 10^4 cells/well seeding density for suspension HL-60 cells. […] After 72 h, the change in color was measured by spectrofluorimetry at an excitation wavelength of 544 nm and emission wavelength of 590 nm. […]
(Alamar Blue is a resazurin reagent that responds to reducing activity.)

As to `COc1ccc(/C=C/C(c2cc(OC)c(OC)c(OC)c2)n2cncn2)cc1O` (stereo not drawn) [Compound 22b, (E)-5-(3-(1H-1,2,4-Triazol-1-yl)-3-(3,4,5-trimethoxyphenyl)prop-1-en-1-yl)-2-methoxyphenol], the cells in apoptosis is recorded as 5.9% in experiment [1] (0.1 μM), 6.5% in experiment [1] (0.5 μM) and 20.8% in experiment [1] (1.0 μM). The viability (usually a read-out of living cells in per cent, often relative to untreated cells) at 0.1 µM in experiment [1] (Homo sapiens, 0.1 μM, Figure 11B) came out at 92.8%; in experiment [2] (Homo sapiens, MCF7, 0.1 μM, Figure 11A) it was 82.8%. The viability at 0.5 µM is 92.1% in experiment [1] (Homo sapiens, 0.5 μM, Figure 11B) and 78.1% in experiment [2] (Homo sapiens, MCF7, 0.5 μM, Figure 11A). Moreover, the viability at 1 µM in experiment [1] (Homo sapiens, 1 μM, Figure 11B) was 77.6%; in experiment [2] (Homo sapiens, MCF7, 1 μM, Figure 11A) it was 60.6%. Also, the “cells undergoing apoptosis (early + late)” value in experiment [2] (0.5 μM) stood at 21%; in experiment [2] (1 μM) it was 33%. In addition, the “effect on microtubule network” value in experiment [3] was “disorganized microtubule network structure similar to that observed with phenstatin, together with multinucleation”. For the same molecule, in experiment [4], the inhibition (usually how much of the control response was suppressed) at 50 µM came to 93%. Also, the half-maximal inhibitory concentration (IC50) (usually the point on the concentration scale where inhibition reaches its midpoint) in experiment [5] was 770 nM; in experiment [5] (72 h), 765 ± 30 nM.
